From patent publication US11753373B2, “Protease inhibitors as antivirals” (priority 2021, dated 2023)
Read-outs that look alike come from different tables or passages of the source.

Experiments:
[1] = format: in vitro ADME, Human; conditions: extraction ratio, compound at 1 uM, human liver microsomes 0.5 mg/mL
Procedure: (§1) Metabolic stability of novel protease inhibitors was determined via liver microsomal stability assay. Human, mouse, SD rat, beagle dog or monkey liver microsomes were incubated with the test compound for 5 to 60 minutes at 37° C., and then the remaining parent compound was quantified by LC-MS/MS. Percentage of the test compound remaining, half-life (t1/2), in vitro intrinsic clearance (CLint, in vitro), in vivo intrinsic clearance (CLint, in vivo), hepatic clearance (CLh) and extraction ratio (ER) were calculated.
(§2) Procedure: The assay was done as described in Baranczewski, P. et al. (2006) Pharmacological Reports 58:453-472; Pearson, P. and Wienkers, L. (2008) Handbook of Drug Metabolism, 2nd Edition. CRC Pres, P.478; and Venkatesh, P. et al. (2007) Biol. Pharm. Bull. 30:1021-2024. 0.625 mg/mL liver microsomes solution was prepared by mixing 2325 μL 100 mM of K-phosphate buffer (pH 7.4) containing 2.5 mM of MgCl2, 1.25 mM of EDTA, and 75 μL microsomes (20 mg/mL) in a vial for each species.
(§3) Positive control compound: (±) Verapamil hydrochloride (Cat No.: V4629; Lot No.: MKBV4993V; Source: Sigma)
(§4) 40 μL aliquots of the liver microsome/test compound mixture were dispensed into 96-well plate in triplicate and pre-warmed the mixture for 5 minutes at 37° C. Then, 10 μL of 5 mM NADPH solution was added to each well to initiate the reaction, and gently mixed. The samples were incubated at 37° C. with gentle shaking.
(§5) For 0-min samples, 200 μL of ACN containing internal standard was added to 40 μL of liver microsome/test compound mixture, followed by addition of 5 mM NADPH, and mixed gently.
(§6) For negative control: 40 μL of liver microsome/test compound mixture was incubated at 37° C. with gentle shaking for 60 minutes, followed by addition of 200 μL ACN containing 1% FA and internal standard and 10 μL of 5 mM NADPH, mixed gently.
(§7) All samples were centrifuged at 4° C. for 20 minutes at 4,000 rpm. Then, 100 μL of the supernatant from each sample was transferred to a new 96-well plate and 100 μL of ultrapure water containing 1% FA was added to each well, and mixed gently. Samples were analyzed by LC-MS/MS.
(§8) Data Analysis: Peak area ratio (Peak Area of test compound/Peak Area of internal standard) was used to represent the concentration of compound in each sample. The remaining percentage (% Remaining) at appointed time points was calculated versus the concentration of compound at 0 min. The Ln value of the remaining percentage was linearly fitted against the incubation time.
(§9) The half-life and clearance were calculated using the following equations:
(§10) Determined percent of the remaining test compound: % remaining=[area at tx/average areas at t0]×100 (1) % metabolized=[100−% remaining] (2)
(§11) Calculated the half-life (t1/2) using the slope (k) of the log-linear regression from the concentration of remaining parent compound versus time (min) relationship: t1/2 (min)=−ln 2/k. (3)
(§12) Clint, in vitro (mL/min/mg) Clint,in vitro=k/c,(c:Liver microsome concentration in the incubation system) (4)
(§13) Hepatic Clearance (CLh) CLh=Clint,in vivo*Hepatic Blood Flow (mL/min/kg)/(Hepatic Blood Flow (mL/min/kg)+Clint,in vivo) (6)
(§14) Extraction ratio (ER): ER=CLint,in vivo/(Qh+CLint,in vivo)*100,Qh:liver blood flow (7)

[2] = format: in vitro ADME; conditions: extraction ratio, compound at 1 uM; for Liver Microsomal Stability (ER) SD rat: SD rat liver microsomes 0.5 mg/mL; for Liver Microsomal Stability (ER) Beagle dog: beagle dog liver microsomes 0.5 mg/mL; for Liver Microsomal Stability (ER) Mouse: mouse liver microsomes 0.5 mg/mL; for Liver Microsomal Stability (ER) Monkey: monkey liver microsomes 0.5 mg/mL
Procedure: as §1, §2, §3
as §4, with “shaking. (Final concentrations: compound=1 μM; liver microsomes protein=0.5 mg/mL; MgCl2=2 mM; EDTA=1 mM; ACN=0.1%; DMSO=0.05%).” for “shaking.”
as §5, §6, §7, §8, §9, §10, §11, §12, §13, §14

[3] = mouse oral PK, female Balb/c, 40 mg/kg single dose; for AUC0-t / Cmax / Tmax / t1/2: plasma
Procedure: Pharmacokinetics of test compounds was evaluated following an oral administration of a single dose (at 40 mg/kg) to female Balb/c mice.
Procedure: Test compounds were administered to Balb/c mice (n=3 per sex per time point) by a single oral gavage. The target dose level for oral administration was 40 mg/kg. Blood samples were collected at pre-dose, and at 0.083, 0.25, 0.50, 1, 2, 4, 6, 8, and 12 hours post-dose. Concentrations of test compound were determined by an LC-MS/MS. Non-compartmental Pharmacokinetic parameters of test compounds were analyzed using Phoenix WinNonlin 8.3.
Animal Dosing: All animals were fasted overnight through approximately 4 hours post-dose. Tap water was provided to mice ad Libitum. The mice were dosed orally at 10.0 ml/kg. The formulation volume of the test compound administered to each animal was calculated based on the body weight measured on the day of dosing.
Sample Collection and Analysis: Approximately 0.20 mL of blood was collected via orbital sinus vein puncture into EDTA-K2 tubes. Plasma samples were harvested by centrifugation and stored at −80° C. until analysis. The analytical method for test compound involved protein precipitation by adding acetonitrile containing 1% FA and internal standard (A-1-a synthesized in house or Tolbutamide purchased from Sigma), and final analysis by LC-MS/MS. A standard curve was prepared using mouse plasma for the test compound. The calibration curve was linear over a concentration range of 1.0 to 1000 ng/mL.
Pharmacokinetic and Statistic Analysis: The reported plasma concentrations of test compounds were used to determine pharmacokinetic parameters, using a non-compartmental model for data analysis (Phoenix WinNonlin 8.3). The common pharmacokinetic parameters were calculated, whenever possible, from the plasma concentration-versus-time data. Nominal doses and sampling times were used, except where deviations were noted. […] BQL after Tmax would not participate in calculation of PK parameters.

[4] = biological target: SARS-CoV-2 M^pro (3CL protease) (Severe acute respiratory syndrome coronavirus 2 (2019-nCoV) (SARS-CoV-2), UniProt P0DTD1); format: biochemical; conditions: read-out: SARS-CoV-2M^pro inhibition IC50
[5] = tested on: SARS-CoV-2; test: Anti-viral in vitro PRNT assay in Vero E6 cells; format: cell-based; conditions: Vero E6 cells, 1000 pfu, 3 days, plaque reduction; for EC50: read-out: anti-SARS-CoV2 (PRNT) in Vero E6 EC50
[6] = wild type Mpro 17 nM, substrate 40 uM

Row | Structure (SMILES) | Liver Microsomal Stability (ER) Human [1] | Liver Microsomal Stability (ER) SD rat [2] | Liver Microsomal Stability (ER) Beagle dog [2] | Liver Microsomal Stability (ER) Mouse [2] | AUC0-t [3] [ng·h/mL] | Cmax [3] [ng/mL] | Tmax [3] [min] | t1/2 [3] [min] | IC50 [4, 6] [nM] | anti-SARS-CoV2 (PRNT) in Vero E6 EC50 (μM) [5] | Liver Microsomal Stability (ER) Monkey [2] | EC50 [5] [nM] | IC50 [4] [nM] | F % (bioavailability) [3] [%]
1 | CC(C)C[C@H](NC(=O)C(F)F)C(=O)N1C[C@H]2[C@@H]([C@H]1C(=O)N[C@H](C#N)C[C@@H]1CCNC1=O)C2(C)C [Compound H-1-b] | 0.09 | 0.06 | 0.05 | 0.35 | 304 | 193 | 30 | 143 |  |  |  |  |  | 
2 | CC(C)C[C@H](NC(=O)c1cc2ccccc2[nH]1)C(=O)N1C[C@H]2[C@@H]([C@H]1C(=O)N[C@H](C(=O)CCl)C(C)C)C2(C)C [Compound G-2-c] | 0.85 | 0.79 | 0.84 | 0.92 |  |  |  |  | > 2000 |  |  |  |  | 
3 | CC1(C)[C@@H]2[C@@H](C(=O)N[C@H](C#N)C[C@@H]3CCCNC3=O)N(C(=O)[C@@H](NC(=O)C(F)F)C3CC3)C[C@@H]21 [Compound D-2-e] | 0.09 | 0.04 | −0.03 | 0.17 |  |  |  |  | 7.02 |  |  |  |  | 
4 | CC(C)C[C@H](NC(=O)C(C)C)C(=O)N1C[C@H]2[C@@H]([C@H]1C(=O)N[C@H](C#N)C[C@@H]1CCNC1=O)C2(C)C [Compound H-1-e] | 0.05 | 0.06 | 0.05 | 0.31 |  |  |  |  | 43.3 |  |  |  |  | 
5 | C=CC(=O)N[C@H](C[C@@H]1CCNC1=O)NC(=O)[C@H](CC(C)C)NC(=O)OCc1ccccc1 [Compound B-1-f] | −0.19 | 0.13 | 0.04 | 0.07 |  |  |  |  |  | inactive | 0.04 |  |  | 
6 | CC(C)C[C@H](NC(=O)c1cc2ccccc2[nH]1)C(=O)N1C[C@H]2[C@@H]([C@H]1C(=O)N[C@H](C(=O)CCl)C(C)(C)C)C2(C)C [Compound G-3-c] |  |  |  |  |  |  |  |  | > 10000 |  |  |  |  | 
7 | CC(C)C[C@H](NC(=O)c1cc2c(F)cccc2[nH]1)C(=O)N[C@H](C=O)C[C@@H]1CCNC1=O [Compound A-3-c] | 0.18 | 0.14 | −0.02 | 0.14 |  |  |  |  |  |  |  | 310 |  | 
8 | C[C@@H](C=O)NC(=O)[C@@H]1[C@@H]2[C@H](CN1C(=O)[C@@H](NC(=O)C(F)(F)F)C1CC1)C2(C)C [Compound F-3-c] | −0.35 | 0.02 | −0.04 | −0.05 |  |  |  |  |  | inactive | −0.03 |  |  | 
9 | CC(C)(C)[C@H](NC(=O)C(F)(F)F)C(=O)N1C[C@H]2[C@@H]([C@H]1C(=O)N[C@@H](C[C@@H]1CCNC1=O)C(=O)CO)C2(C)C [Compound D-1-c] | 0.04 | 0.04 | −0.06 | 0.18 | 1359 | 410 | 30 | 174 |  |  |  | 610 |  | 
10 | C[C@H](NC(=O)[C@@H]1[C@@H]2[C@H](CN1C(=O)[C@@H](NC(=O)C(F)(F)F)C(C)(C)C)C2(C)C)C(=O)CCl [Compound F-1-b] | 0.48 | 0.53 | 0.46 | 0.38 |  |  |  |  |  | inactive | 0.44 |  |  | 
11 | CC(C)[C@@H](C#N)NC(=O)[C@@H]1[C@@H]2[C@H](CN1C(=O)[C@@H](NC(=O)C(F)(F)F)C1CC1)C2(C)C [Compound F-4-a] | 0.07 | 0.20 | 0.08 | 0.03 |  |  |  |  |  | inactive | 0.07 |  |  | 
12 | CC1(C)[C@@H]2[C@@H](C(=O)N[C@H](C#N)C[C@@H]3CCNC3=O)N(C(=O)[C@@H](NC(=O)C3CC3)C3CC3)C[C@@H]21 [Compound D-2-c] |  |  |  |  |  |  |  |  |  |  |  |  | 69.7 | 
13 | CC(C)(C)[C@H](NC(=O)C(F)F)C(=O)N1C[C@H]2[C@@H]([C@H]1C(=O)N[C@H](C#N)C[C@@H]1CCNC1=O)C2(C)C [Compound D-3-b] | 0.01 | 0.02 | −0.01 | 0.26 | 3768 | 1190 | 60 | 112 |  |  |  | 3570 |  | 20.2
14 | C=CC(=O)N[C@H](C[C@@H]1CCNC1=O)NC(=O)[C@H](CC1CCCCC1)NC(=O)OCc1ccccc1 [Compound B-2-e] | 0.73 | 0.19 | 0.47 | 0.43 |  |  |  |  |  | inactive | 0.70 |  |  | 
15 | C[C@@H](OC(C)(C)C)[C@H](NC(=O)OCc1ccccc1)C(=O)N[C@@H](CC1CCCCC1)C(=O)N[C@H](C=O)C[C@@H]1CCNC1=O [Compound C-2-b] | 0.66 | 0.29 | 0.48 | 0.48 | 665.2 | 496 | 15 | 52.6 |  |  | 0.43 | 730 |  | 5.0
16 | COc1cccc2[nH]c(C(=O)N[C@@H](CC(C)C)C(=O)N[C@H](C=O)C[C@@H]3CCNC3=O)cc12 [Compound A-5-a] | 0.10 | 0.11 | 0.05 | 0.19 |  |  |  |  |  |  |  | 1520 |  | 
17 | C=CC(=O)N[C@H](C[C@@H]1CCNC1=O)NC(=O)[C@@H]1[C@@H]2[C@H](CN1C(=O)[C@@H](NC(=O)C(F)(F)F)C(C)(C)C)C2(C)C [Compound D-1-e] | −0.05 | 0.04 | −0.04 | −0.04 |  |  |  |  |  | inactive | −0.10 |  |  | 
